According to ChEMBL document CHEMBL5150005, “Discovery of 5-{4-[(7-Ethyl-6-oxo-5,6-dihydro-1,5-naphthyridin-3-yl)methyl]piperazin-1-yl}-N-methylpyridine-2-carboxamide (AZD5305): A PARP1-DNA Trapper with High Selectivity for PARP1 over PARP2 and Other PARPs” (J Med Chem, 2021):
In brackets after ≈: the same amount, converted by molar mass. Activity calls are given as the source filed them. No cut-off for these calls is given here.

Tests used:
in vitro [1] = settings: human, liver microsomes
[2] = target: Poly [ADP-ribose] polymerase 2 (Homo sapiens, UniProt Q9UGN5); experiment: Inhibition of human recombinant N-terminal Avi-6His-TEV tagged PARP2 full length expressed in pFastBac expression system incubated for 4 hrs by fluorescence anisotropy binding assay
[3] = Aqueous solubility of the compound at pH 7.4; format: physicochemical; settings: buffer
[4] = target: Voltage-gated inwardly rectifying potassium channel KCNH2 (Homo sapiens, UniProt Q12809); experiment: Inhibition of human ERG; format: toxicity
physchem = settings: buffer, pH 7.4
DLD-1 = experiment: Antiproliferative activity against human DLD-1 deficient in BRCA-2 cells measured after 7 days; format: functional, cell-based
[5] = target: Poly [ADP-ribose] polymerase tankyrase-2 (Homo sapiens) (UniProt Q9H2K2)
[6] = target: Protein mono-ADP-ribosyltransferase PARP8 (Homo sapiens, UniProt Q8N3A8); experiment: Binding affinity to PARP8 (unknown origin) assessed as apparent dissociation constant; settings: read-out: Kd(app)
[7] = target: T1, Protein mono-ADP-ribosyltransferase PARP9 (Homo sapiens, UniProt Q8IXQ6); experiment: Binding affinity to PARP9 (unknown origin) assessed as apparent dissociation constant; settings: read-out: Kd(app)
[8] = target: Protein mono-ADP-ribosyltransferase PARP11 (Homo sapiens, UniProt Q9NR21)
[9] = Hematotoxicity in CD34+ hematopoietic stem/progenitor cells (unknown origin) assessed as reduction of cell viability treated for 5 days by cell-tire-Glo-2.0 luminescence based assay; format: toxicity, CD34-positive hematopoietic stem/progenitor cell
[10] = target: Protein mono-ADP-ribosyltransferase TIPARP (Homo sapiens) (UniProt Q7Z3E1)
[11] = target: T1, Protein mono-ADP-ribosyltransferase PARP9
[12] = Hematotoxicity in CD34+ hematopoietic stem/progenitor cells (unknown origin) assessed as reduction of cell viability treated at 0.00001 to 100 uM for 5 days by cell-tire-Glo-2.0 luminescence based assay relative to control; format: toxicity; settings: cd34-positive hematopoietic stem/progenitor cell, 120 h, dose lower 1e-05 µM, dose upper 100 µM, time 5 day
[13] = target: Protein mono-ADP-ribosyltransferase PARP12 (Homo sapiens, UniProt Q9H0J9)
[14] = Hematotoxicity in CD34+ hematopoietic stem/progenitor cells (unknown origin) assessed as remaining viable cells treated at 100 nM for 5 days by cell-tire-Glo-2.0 luminescence based assay relative to control; format: toxicity, CD34-positive hematopoietic stem/progenitor cell; settings: time 5 day, read-out: Activity
[15] = target: Poly [ADP-ribose] polymerase tankyrase-1 (Homo sapiens) (UniProt O95271); experiment: Binding affinity to PARP5a (unknown origin) assessed as apparent dissociation constant
[16] = target: Protein mono-ADP-ribosyltransferase PARP16 (Homo sapiens, UniProt Q8N5Y8); experiment: Binding affinity to PARP16 (unknown origin) assessed as apparent dissociation constant; settings: read-out: Kd(app)
[17] = target: Protein mono-ADP-ribosyltransferase PARP3 (Homo sapiens) (UniProt Q9Y6F1); experiment: Binding affinity to PARP3 (unknown origin) assessed as apparent dissociation constant
[18] = target: T2, Protein mono-ADP-ribosyltransferase PARP8 (Homo sapiens) (UniProt Q8N3A8)
T2 sequence (whole entry): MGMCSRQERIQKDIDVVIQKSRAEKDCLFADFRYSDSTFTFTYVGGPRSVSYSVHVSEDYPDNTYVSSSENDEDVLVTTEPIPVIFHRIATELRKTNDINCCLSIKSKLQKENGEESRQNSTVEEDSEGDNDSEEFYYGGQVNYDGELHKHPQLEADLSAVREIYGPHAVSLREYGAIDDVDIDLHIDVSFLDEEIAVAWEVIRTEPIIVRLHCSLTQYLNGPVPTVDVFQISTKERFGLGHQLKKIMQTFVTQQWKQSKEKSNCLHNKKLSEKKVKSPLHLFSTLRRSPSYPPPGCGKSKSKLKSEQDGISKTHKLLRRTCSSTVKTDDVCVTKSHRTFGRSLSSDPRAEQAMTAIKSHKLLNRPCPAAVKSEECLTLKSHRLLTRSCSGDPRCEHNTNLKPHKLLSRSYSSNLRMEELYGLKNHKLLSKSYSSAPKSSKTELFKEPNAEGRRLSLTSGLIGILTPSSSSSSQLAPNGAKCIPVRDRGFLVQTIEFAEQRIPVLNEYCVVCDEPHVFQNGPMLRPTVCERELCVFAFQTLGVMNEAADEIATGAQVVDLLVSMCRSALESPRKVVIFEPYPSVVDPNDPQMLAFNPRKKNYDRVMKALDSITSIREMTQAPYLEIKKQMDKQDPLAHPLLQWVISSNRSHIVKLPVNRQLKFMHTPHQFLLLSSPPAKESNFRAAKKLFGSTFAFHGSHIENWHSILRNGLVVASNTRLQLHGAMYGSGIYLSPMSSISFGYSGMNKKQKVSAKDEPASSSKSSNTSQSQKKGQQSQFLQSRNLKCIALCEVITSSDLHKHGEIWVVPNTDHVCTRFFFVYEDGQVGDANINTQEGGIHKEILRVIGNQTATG

[19] = target: Poly [ADP-ribose] polymerase 1 (Homo sapiens, UniProt P09874)
[20] = Intrinsic clearance in human hepatocytes measured per million of cells; format: ADME, cell-based, Hepatocyte; settings: read-out: CLH
in vitro [21] = settings: human, Caco-2, pH 7.4
[22] = target: Poly [ADP-ribose] polymerase tankyrase-1 (Homo sapiens, UniProt O95271)
[23] = target: Protein mono-ADP-ribosyltransferase PARP14 (Homo sapiens) (UniProt Q460N5)
[24] = target: Protein mono-ADP-ribosyltransferase PARP12 (Homo sapiens) (UniProt Q9H0J9)
[25] = Antitumor activity against patient derived explant HBCx-17 cells xenografted in mouse assessed as tumor regression administered daily at 100 mg/kg, po for 25 days relative to control; format: functional, Homo sapiens; settings: time 25 day

Voltage-gated inwardly rectifying potassium channel KCNH2, sequence (Q12809 whole entry): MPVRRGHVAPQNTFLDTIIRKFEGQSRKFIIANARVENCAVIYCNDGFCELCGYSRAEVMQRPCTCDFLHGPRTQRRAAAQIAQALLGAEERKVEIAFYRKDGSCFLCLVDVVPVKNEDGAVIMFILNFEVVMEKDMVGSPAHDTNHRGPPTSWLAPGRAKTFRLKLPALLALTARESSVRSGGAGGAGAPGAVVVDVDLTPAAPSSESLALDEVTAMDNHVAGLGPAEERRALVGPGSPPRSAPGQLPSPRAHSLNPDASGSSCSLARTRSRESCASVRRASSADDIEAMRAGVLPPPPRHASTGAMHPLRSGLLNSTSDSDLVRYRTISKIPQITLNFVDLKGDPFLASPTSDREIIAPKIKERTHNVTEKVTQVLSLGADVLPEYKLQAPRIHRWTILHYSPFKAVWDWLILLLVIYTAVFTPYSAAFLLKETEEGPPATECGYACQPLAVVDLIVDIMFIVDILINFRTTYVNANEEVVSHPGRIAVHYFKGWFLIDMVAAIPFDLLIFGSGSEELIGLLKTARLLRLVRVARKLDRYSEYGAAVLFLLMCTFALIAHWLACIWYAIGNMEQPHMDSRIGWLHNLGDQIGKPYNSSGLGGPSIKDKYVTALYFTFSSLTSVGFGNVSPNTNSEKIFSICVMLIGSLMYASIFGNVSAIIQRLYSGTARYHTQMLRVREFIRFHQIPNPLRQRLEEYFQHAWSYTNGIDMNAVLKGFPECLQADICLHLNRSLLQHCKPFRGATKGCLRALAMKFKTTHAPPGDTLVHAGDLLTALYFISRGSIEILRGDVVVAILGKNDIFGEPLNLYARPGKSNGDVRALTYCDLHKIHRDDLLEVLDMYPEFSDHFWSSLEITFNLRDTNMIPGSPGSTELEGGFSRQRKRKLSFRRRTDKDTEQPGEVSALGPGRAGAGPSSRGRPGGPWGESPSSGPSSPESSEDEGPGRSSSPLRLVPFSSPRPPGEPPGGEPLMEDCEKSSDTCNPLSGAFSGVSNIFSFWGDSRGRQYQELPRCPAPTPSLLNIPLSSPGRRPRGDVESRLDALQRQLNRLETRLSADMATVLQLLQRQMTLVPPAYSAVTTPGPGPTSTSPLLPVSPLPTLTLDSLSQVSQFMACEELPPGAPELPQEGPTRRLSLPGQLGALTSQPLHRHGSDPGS
Poly [ADP-ribose] polymerase 1, sequence (P09874 whole entry): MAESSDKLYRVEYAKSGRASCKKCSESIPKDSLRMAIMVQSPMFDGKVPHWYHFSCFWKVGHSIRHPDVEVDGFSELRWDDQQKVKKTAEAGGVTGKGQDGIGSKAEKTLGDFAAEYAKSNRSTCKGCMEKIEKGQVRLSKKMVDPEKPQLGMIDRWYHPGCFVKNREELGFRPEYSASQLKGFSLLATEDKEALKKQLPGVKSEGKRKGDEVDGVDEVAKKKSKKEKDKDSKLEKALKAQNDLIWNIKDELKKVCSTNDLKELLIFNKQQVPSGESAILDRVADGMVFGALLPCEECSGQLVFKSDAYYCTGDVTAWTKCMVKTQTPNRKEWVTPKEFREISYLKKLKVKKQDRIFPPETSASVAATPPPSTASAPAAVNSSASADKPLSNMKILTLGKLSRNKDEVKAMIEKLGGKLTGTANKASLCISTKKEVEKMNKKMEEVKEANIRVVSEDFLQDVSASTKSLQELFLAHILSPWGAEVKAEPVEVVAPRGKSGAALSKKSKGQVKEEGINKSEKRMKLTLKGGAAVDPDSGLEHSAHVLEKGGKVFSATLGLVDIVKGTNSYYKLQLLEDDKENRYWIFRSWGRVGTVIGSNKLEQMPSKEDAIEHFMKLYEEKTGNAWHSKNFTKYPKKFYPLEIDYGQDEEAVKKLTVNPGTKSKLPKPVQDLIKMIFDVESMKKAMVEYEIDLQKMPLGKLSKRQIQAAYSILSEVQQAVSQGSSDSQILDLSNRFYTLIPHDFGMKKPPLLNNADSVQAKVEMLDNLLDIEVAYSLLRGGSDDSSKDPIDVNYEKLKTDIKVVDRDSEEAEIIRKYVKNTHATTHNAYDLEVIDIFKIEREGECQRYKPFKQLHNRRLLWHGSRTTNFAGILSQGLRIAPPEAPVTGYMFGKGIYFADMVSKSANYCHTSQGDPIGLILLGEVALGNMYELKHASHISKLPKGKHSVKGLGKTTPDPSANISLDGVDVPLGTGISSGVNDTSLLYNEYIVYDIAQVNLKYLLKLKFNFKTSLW
Poly [ADP-ribose] polymerase 2, sequence (Q9UGN5 whole entry): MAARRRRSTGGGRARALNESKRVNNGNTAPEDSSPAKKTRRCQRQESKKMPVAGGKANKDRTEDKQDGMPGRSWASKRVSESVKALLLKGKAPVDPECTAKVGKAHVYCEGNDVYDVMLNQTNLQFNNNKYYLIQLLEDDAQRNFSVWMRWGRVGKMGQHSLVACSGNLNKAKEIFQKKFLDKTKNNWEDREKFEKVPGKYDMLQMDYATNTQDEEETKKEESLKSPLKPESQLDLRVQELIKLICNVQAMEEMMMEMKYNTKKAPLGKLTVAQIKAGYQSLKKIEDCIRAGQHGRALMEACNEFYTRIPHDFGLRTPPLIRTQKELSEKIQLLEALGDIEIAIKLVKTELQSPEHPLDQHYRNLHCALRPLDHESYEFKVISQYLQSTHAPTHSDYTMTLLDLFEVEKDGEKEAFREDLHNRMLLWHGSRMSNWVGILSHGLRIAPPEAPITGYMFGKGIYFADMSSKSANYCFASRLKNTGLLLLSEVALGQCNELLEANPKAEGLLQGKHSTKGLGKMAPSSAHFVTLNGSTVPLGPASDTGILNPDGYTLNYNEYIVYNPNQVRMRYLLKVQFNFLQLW
Poly [ADP-ribose] polymerase tankyrase-2 (Homo sapiens), sequence (Q9H2K2 whole entry): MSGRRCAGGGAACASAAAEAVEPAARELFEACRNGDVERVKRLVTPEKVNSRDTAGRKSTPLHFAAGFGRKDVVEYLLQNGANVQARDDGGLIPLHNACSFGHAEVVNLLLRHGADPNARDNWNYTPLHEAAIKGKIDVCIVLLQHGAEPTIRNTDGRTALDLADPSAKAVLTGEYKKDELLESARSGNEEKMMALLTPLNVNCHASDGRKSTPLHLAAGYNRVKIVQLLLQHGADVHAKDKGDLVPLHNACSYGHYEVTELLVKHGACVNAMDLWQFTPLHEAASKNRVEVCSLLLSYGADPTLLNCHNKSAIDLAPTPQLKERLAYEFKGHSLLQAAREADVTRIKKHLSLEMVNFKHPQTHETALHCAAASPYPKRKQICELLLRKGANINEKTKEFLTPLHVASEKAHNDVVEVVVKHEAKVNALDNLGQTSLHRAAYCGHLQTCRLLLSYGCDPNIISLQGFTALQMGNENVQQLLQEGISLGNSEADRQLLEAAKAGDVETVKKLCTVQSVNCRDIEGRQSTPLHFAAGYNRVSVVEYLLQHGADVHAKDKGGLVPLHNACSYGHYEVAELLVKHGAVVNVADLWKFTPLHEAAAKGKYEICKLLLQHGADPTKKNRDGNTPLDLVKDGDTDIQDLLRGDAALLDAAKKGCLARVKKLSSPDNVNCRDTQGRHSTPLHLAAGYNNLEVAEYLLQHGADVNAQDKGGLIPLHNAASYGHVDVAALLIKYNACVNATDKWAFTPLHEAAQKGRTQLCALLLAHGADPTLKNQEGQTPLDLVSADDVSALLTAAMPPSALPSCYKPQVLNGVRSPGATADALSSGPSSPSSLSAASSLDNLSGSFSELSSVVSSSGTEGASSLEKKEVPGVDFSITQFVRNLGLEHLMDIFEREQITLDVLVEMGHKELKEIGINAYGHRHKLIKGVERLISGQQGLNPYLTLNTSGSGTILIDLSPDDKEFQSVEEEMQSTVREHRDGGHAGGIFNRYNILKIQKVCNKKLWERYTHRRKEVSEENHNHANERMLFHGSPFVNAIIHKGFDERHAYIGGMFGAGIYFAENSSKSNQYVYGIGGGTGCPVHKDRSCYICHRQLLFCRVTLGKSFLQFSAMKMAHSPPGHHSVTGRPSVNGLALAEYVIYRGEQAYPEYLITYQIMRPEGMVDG
Protein mono-ADP-ribosyltransferase PARP11, sequence (Q9NR21 whole entry): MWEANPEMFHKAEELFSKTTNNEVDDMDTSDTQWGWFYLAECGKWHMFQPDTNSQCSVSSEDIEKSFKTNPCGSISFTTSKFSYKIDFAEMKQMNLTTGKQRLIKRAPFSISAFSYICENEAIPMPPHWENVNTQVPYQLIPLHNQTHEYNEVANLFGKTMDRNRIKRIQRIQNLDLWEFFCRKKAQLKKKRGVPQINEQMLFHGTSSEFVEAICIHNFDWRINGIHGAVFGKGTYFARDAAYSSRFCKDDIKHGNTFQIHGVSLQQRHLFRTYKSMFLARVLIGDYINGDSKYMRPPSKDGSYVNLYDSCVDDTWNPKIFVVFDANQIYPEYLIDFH
Protein mono-ADP-ribosyltransferase TIPARP (Homo sapiens), sequence (Q7Z3E1 whole entry): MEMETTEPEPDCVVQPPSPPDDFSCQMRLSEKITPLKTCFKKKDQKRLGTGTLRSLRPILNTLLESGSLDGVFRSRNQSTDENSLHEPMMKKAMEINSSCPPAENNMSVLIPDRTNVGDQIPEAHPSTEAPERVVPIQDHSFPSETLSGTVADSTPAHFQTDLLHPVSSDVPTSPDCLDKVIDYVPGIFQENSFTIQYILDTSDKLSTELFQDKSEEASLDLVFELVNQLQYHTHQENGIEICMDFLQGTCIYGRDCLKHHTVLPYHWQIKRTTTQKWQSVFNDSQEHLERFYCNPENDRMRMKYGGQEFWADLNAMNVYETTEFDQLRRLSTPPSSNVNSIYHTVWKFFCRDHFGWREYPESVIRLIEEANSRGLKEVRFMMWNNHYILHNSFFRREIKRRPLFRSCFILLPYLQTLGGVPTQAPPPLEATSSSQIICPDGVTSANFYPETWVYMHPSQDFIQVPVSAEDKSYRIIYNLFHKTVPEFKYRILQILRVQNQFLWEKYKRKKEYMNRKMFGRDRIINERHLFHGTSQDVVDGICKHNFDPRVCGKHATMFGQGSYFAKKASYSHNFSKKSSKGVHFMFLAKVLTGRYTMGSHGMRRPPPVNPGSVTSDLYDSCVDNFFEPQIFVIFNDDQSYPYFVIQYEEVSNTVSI

Row | SMILES | microsomal CLint (in vitro [1]) | IC50 [2] | solubility [3] | IC50 [4] | logD (physchem) | IC50 (DLD-1; Homo sapiens, DLD-1, 168 h) | IC50 [19] | further results
1 | Cc1cnc(N2CCN(Cc3ccc4c(c3)[nH]c(=O)c3ccccc34)CC2)n1C | 26 µL/min/mg | 600 nM | < 12 µM | 3900 nM | 3.3 |  |  | 
2 | CNCc1ccc(-c2[nH]c3cc(F)cc4c3c2CCNC4=O)cc1 [RUCAPARIB] |  |  |  |  |  | 27 nM |  | Kd(app) [5]: Active; Kd [6]: > 10000 nM; Kd [7]: 3100 nM; Kd [8]: > 10000 nM
3 | Cn1ncnc1[C@H]1c2n[nH]c(=O)c3cc(F)cc(c23)N[C@@H]1c1ccc(F)cc1 [TALAZOPARIB] |  |  |  |  |  | 2 nM |  | IC50 at 5 days ([9]; CD34+ hematopoietic stem/progenitor cells): 27 nM; Activity ([9]; cd34-positive hematopoietic stem/progenitor cell, 120 h, DDE = dose-dependent effect, dose lower 1e-05 µM, dose upper 100 µM, time 5 day): Dde; Kd(app) [10]: Active; Kd(app) [5]: Active; Kd [6]: 1100 nM; Kd(app) [11]: Active; Activity [12]: 1%; Kd [13]: > 10000 nM; viability at 120 h, 0.1 µM [14]: 10%
4 | O=c1[nH]c(CCCN2CCN(c3ccc(F)cc3F)CC2)nc2c(Cl)cccc12 | 58 µL/min/mg | 22000 nM | 6 µM (≈ 2.51 µg/mL) | 1400 nM | 3.9 |  |  | 
5 | CCc1cc2ccc(CN3CCN(c4ncc(C)n4C)CC3)cc2[nH]c1=O | 25 µL/min/mg | 4200 nM | 224 µM (≈ 81.9 µg/mL) | 12000 nM | 2.7 | 3 nM |  | 
6 | Cc1cnc(N2CCN(Cc3ccc4c(c3)[nH]c(=O)c3ncccc34)CC2)n1C | 9 µL/min/mg | 28000 nM | 383 µM (≈ 149 µg/mL) | > 40000 nM | 1.7 | 121 nM |  | 
7 | NC(=O)c1cccc2cn(-c3ccc([C@@H]4CCCNC4)cc3)nc12 [NIRAPARIB] |  |  |  |  |  | 149 nM |  | Kd(app) [15]: Active; Kd [16]: > 10000 nM; Kd(app) [17]: Active; Kd(app) [11]: Active; Kd(app) [18]: Active; Kd [8]: > 10000 nM
8 | CCc1cc2ccc(CN3CCN(c4ccc(F)cc4F)CC3)cc2[nH]c1=O | 16 µL/min/mg | > 26000 nM | 0.2 µM (≈ 0.0767 µg/mL) | 2300 nM | 4.2 | 1 nM | 8 nM | 
9 | CCc1nc2ccc(CN3CCN(c4ccc(C(=O)NC)nc4)CC3)cc2[nH]c1=O | 7 µL/min/mg | 4900 nM | 12 µM (≈ 4.88 µg/mL) |  | 2.4 | 4 nM |  | hepatocyte CLint [20]: 1.9 µL/min/1e6 cells; efflux ratio (in vitro [21]): 1
10 | CCc1cc2ccc(CN3CCN(c4cnc(C(=O)NC)nc4)CC3)cc2[nH]c1=O | < 3 µL/min/mg | 2400 nM | 58 µM (≈ 23.6 µg/mL) | > 40000 nM | 1.8 | 2500 nM | 8 nM | efflux ratio (in vitro [21]): 14
11 | O=c1[nH]c(CCCN2CC=C(c3ccc(F)cc3)CC2)nc2c(Cl)cccc12 | 35 µL/min/mg | 20000 nM | 56 µM (≈ 22.3 µg/mL) | 2600 nM | 3.8 | > 23000 nM | 65 nM | 
12 | CCc1cc2ccc(CN3CCN(c4ccc(C(=O)NC)nc4)CC3)cc2[nH]c1=O | 17 µL/min/mg | 1100 nM | 9 µM (≈ 3.65 µg/mL) | 21000 nM | 2.8 | 3 nM | 5 nM | efflux ratio (in vitro [21]): 0.7
13 | Cc1cnc(N2CCN(Cc3ccc4c(c3)[nH]c(=O)c3cccnc34)CC2)n1C | 30 µL/min/mg | 9100 nM | 15 µM (≈ 5.83 µg/mL) | 11000 nM | 2.5 | 15 nM | 30 nM | efflux ratio (in vitro [21]): 1.3
14 | CCc1cc2ccc(CN3CCN(c4ccc(C(=O)NC)cc4)CC3)cc2[nH]c1=O | 11 µL/min/mg | 3900 nM | < 0.25 µM | 8300 nM | 3 | 7 nM |  | 
15 | Cc1cnc(N2CCN(Cc3ccc4c5c(c(=O)[nH]c4c3)CCCC5)CC2)n1C | 57 µL/min/mg | 490 nM | 46 µM (≈ 18 µg/mL) | 3800 nM | 3.2 |  |  | 
16 | Cc1cnc(N2CCN(Cc3ccc4c5c(c(=O)[nH]c4c3)COCC5)CC2)n1C | 8 µL/min/mg | 6600 nM | 158 µM (≈ 62.2 µg/mL) | > 40000 nM | 1.9 |  | 38 nM | efflux ratio (in vitro [21]): 10
17 | NC(=O)c1cc(F)cc2c1C(=O)N(C1CCN(C3CCC(F)(F)CC3)CC1)C2 |  |  |  |  |  | 2000 nM |  | IC50 [22]: > 100000 nM
18 | CCc1cc2ccc(CN3CCN(c4cnc(C(=O)NC)cn4)CC3)cc2[nH]c1=O | 18 µL/min/mg | 5900 nM | 2 µM (≈ 0.813 µg/mL) | > 40000 nM | 2.7 | 4400 nM |  | 
19 | C[C@]1(c2nc3c(C(N)=O)cccc3[nH]2)CCCN1 [VELIPARIB] |  |  |  |  |  |  |  | IC50 (DLD-1; dld-1): 750 nM; Kd(app) [10]: Active; Kd(app) [23]: Active; Kd(app) [11]: Active; Kd(app) [18]: Active; Kd(app) [24]: Active
20 | O=C(c1cc(Cc2n[nH]c(=O)c3ccccc23)ccc1F)N1CCN(C(=O)C2CC2)CC1 [OLAPARIB] |  |  |  |  |  | 42 nM |  | Activity [25]: 81%
21 | CCc1cc2ccc(CN3CCN(c4ccc(C(=O)NC)nn4)CC3)cc2[nH]c1=O | 14 µL/min/mg | 7400 nM | 30 µM (≈ 12.2 µg/mL) | > 40000 nM | 2.4 | 294 nM | 4 nM | efflux ratio (in vitro [21]): 1.5
22 | Cc1cnc(N2CCN(Cc3ccc4c5c(c(=O)[nH]c4c3)CCCN5)CC2)n1C | 15 µL/min/mg | 1100 nM | 136 µM (≈ 53.4 µg/mL) | 30000 nM | 2.2 | 52 nM | 51 nM | efflux ratio (in vitro [21]): 3.6
23 | CCc1cc2cnc(CN3CCN(c4ccc(C(=O)NC)nc4)CC3)cc2[nH]c1=O | 6 µL/min/mg |  | 31 µM (≈ 12.6 µg/mL) |  | 2 | 2 nM |  | hepatocyte CLint [20]: < 1 µL/min/1e6 cells
24 | Cc1cnc(N2CCN(CCCc3nc4c(Cl)cccc4c(=O)[nH]3)CC2)n1C | 44 µL/min/mg | 4000 nM | 4 µM (≈ 1.6 µg/mL) | 1500 nM | 2.3 | 180 nM |  | 
